Assay results taken from ChEMBL document CHEMBL5537120 (Eur J Med Chem, 2024).
Calls of active or inactive are those of the source. The rule behind the calls is not given here. Where a SMILES comes first, the peptide text is derived from it. Bridges are numbered along the chain shown (N, C = ends).

These compounds were tested on SARS-CoV-2 (assay: Antiviral activity against HIV-1 pseudotyped SARS-CoV-2 Omicron BA.2.75 infected in HEK293T cells harboring ACE2+/NRP1- assessed as reduction in infection rate pretreated with cells for 1 hr followed by viral infection and measured after 2 days by firefly luciferase reporter gene assay). Conditions: Severe acute respiratory syndrome coronavirus 2, time 49.0 hrs.
Type: functional, organism-based
CC(C)C[C@@H]1NC(=O)[C@@H]2CCCN2C(=O)[C@H](CO)NC(=O)[C@@H](NC(=O)[C@H](Cc2cnc[nH]2)NC(=O)[C@H](CO)NC(=O)[C@H](Cc2ccccc2)NC(=O)[C@H](CC(=O)O)NC(=O)CN)CSSC[C@@H](C(=O)N[C@H](C(=O)N[C@@H](Cc2ccc(O)cc2)C(=O)N2CCC[C@H]2C(=O)N[C@@H](CC(=O)O)C(=O)N2CCC[C@H]2C(=O)N[C@@H](CCC(=O)O)C(=O)NCC(=O)NCC(=O)NCC(=O)N[C@@H](CCCCN)C(=O)N2CCC[C@H]2C(=O)N[C@@H](C)C(=O)N[C@@H](CCCNC(=N)N)C(=O)N2CCC[C@H]2C(=O)N[C@@H](C)C(=O)N[C@@H](CCCNC(=N)N)C(=O)O)[C@@H](C)O)NC(=O)[C@H](CCCCN)NC(=O)[C@H](Cc2ccccc2)NC(=O)[C@H](Cc2c[nH]c3ccccc23)NC(=O)[C@@H]2CCCN2C(=O)[C@H](Cc2ccccc2)NC(=O)[C@H](Cc2ccc(O)cc2)NC(=O)[C@H](CCCNC(=N)N)NC1=O (H-GDFSHCSPLRYFPWFKCTYPDPEGGGKPARPAR-OH; disulfide 6-17) was tested, and the Activity was “Active”.
With CC(C)C[C@@H]1NC(=O)[C@H](C)NC(=O)[C@H](CCCNC(=N)N)NC(=O)[C@@H](NC(=O)[C@@H]2CCCN2C(=O)[C@H](CO)NC(=O)[C@H](Cc2ccc(O)cc2)NC(=O)[C@H](CC(=O)O)NC(=O)CN)CSSC[C@@H](C(=O)N2CCC[C@H]2C(=O)N[C@@H](CO)C(=O)NCC(=O)N[C@@H](CC(=O)O)C(=O)N2CCC[C@H]2C(=O)N[C@@H](CCC(=O)O)C(=O)NCC(=O)NCC(=O)NCC(=O)N[C@@H](CCCNC(=N)N)C(=O)NCC(=O)N[C@@H](CCCNC(=N)N)C(=O)N[C@@H](CCCNC(=N)N)C(=O)N2CCC[C@H]2C(=O)N2CCC[C@H]2C(=O)N[C@@H](CCCNC(=N)N)C(=O)O)NC(=O)[C@H](CCCNC(=N)N)NC(=O)[C@H](Cc2c[nH]c3ccccc23)NC(=O)[C@H](Cc2c[nH]c3ccccc23)NC(=O)[C@@H]2CCCN2C(=O)[C@H](CO)NC(=O)[C@H](Cc2cnc[nH]2)NC(=O)[C@H](CCCNC(=N)N)NC1=O (H-GDYSPCRALRHSPWWRCPSGDPEGGGRGRRPPR-OH; disulfide 6-17) the Activity was “Active”.
With CC(C)C[C@H](NC(=O)[C@H](CC(=O)O)NC(=O)CN)C(=O)N[C@@H](Cc1cnc[nH]1)C(=O)N[C@@H](C)C(=O)N[C@H]1CSSC[C@@H](C(=O)N[C@H](C(=O)N[C@@H](CC(C)C)C(=O)NCC(=O)N[C@@H](CC(=O)O)C(=O)N2CCC[C@H]2C(=O)N[C@@H](CCC(=O)O)C(=O)NCC(=O)NCC(=O)NCC(=O)N[C@@H](CCCNC(=N)N)C(=O)N[C@@H](CO)C(=O)N2CCC[C@H]2C(=O)N[C@@H](CCCNC(=N)N)C(=O)N[C@@H](CCCNC(=N)N)C(=O)N[C@@H](C)C(=O)N[C@@H](CCCNC(=N)N)C(=O)O)[C@@H](C)O)NC(=O)[C@H](C)NC(=O)[C@H](Cc2c[nH]c3ccccc23)NC(=O)[C@H](Cc2c[nH]c3ccccc23)NC(=O)[C@@H]2CCCN2C(=O)[C@H](CC(=O)O)NC(=O)CNC(=O)[C@H](CCCNC(=N)N)NC(=O)[C@H](C(C)C)NC(=O)[C@@H]2CCCN2C(=O)[C@H](CCCNC(=N)N)NC1=O (H-GDLHACRPVRGDPWWACTLGDPEGGGRSPRRAR-OH; disulfide 6-17) the Activity was “Active”.
In the case of CC[C@H](C)[C@H](NC(=O)[C@H](Cc1ccccc1)NC(=O)[C@H](CCCCN)NC(=O)[C@H](CC(=O)O)NC(=O)CN)C(=O)N[C@H]1CSSC[C@@H](C(=O)N[C@@H](CC(N)=O)C(=O)N[C@@H](Cc2c[nH]c3ccccc23)C(=O)N[C@@H](Cc2ccc(O)cc2)C(=O)N[C@@H](CC(=O)O)C(=O)N2CCC[C@H]2C(=O)N[C@@H](CCC(=O)O)C(=O)NCC(=O)NCC(=O)NCC(=O)N[C@@H](CCCCN)C(=O)NCC(=O)N[C@@H](CC(N)=O)C(=O)N[C@@H](CCCNC(=N)N)C(=O)N2CCC[C@H]2C(=O)N2CCC[C@H]2C(=O)N[C@@H](CCCNC(=N)N)C(=O)O)NC(=O)[C@H](Cc2ccccc2)NC(=O)[C@H](CCCCN)NC(=O)[C@H](Cc2c[nH]c3ccccc23)NC(=O)[C@@H]2CCCN2C(=O)[C@H](CCCCN)NC(=O)[C@H](CC(=O)O)NC(=O)[C@H](CCCNC(=N)N)NC(=O)[C@H]([C@@H](C)CC)NC(=O)[C@@H]2CCCN2C(=O)[C@H](CC(C)C)NC1=O (H-GDKFICLPIRDKPWKFCNWYDPEGGGKGNRPPR-OH; disulfide 6-17), the Activity is reported as “Active”.
For CC[C@H](C)[C@@H]1NC(=O)[C@@H]2CCCN2C(=O)[C@H](CO)NC(=O)[C@@H](NC(=O)[C@@H](NC(=O)[C@H](Cc2ccc(O)cc2)NC(=O)[C@H](CCCNC(=N)N)NC(=O)[C@H](CC(=O)O)NC(=O)CN)[C@@H](C)O)CSSC[C@@H](C(=O)N[C@@H](CC(=O)O)C(=O)N[C@@H](CC(C)C)C(=O)NCC(=O)N[C@@H](CC(=O)O)C(=O)N2CCC[C@H]2C(=O)N[C@@H](CCC(=O)O)C(=O)NCC(=O)NCC(=O)NCC(=O)N[C@@H](CCCCN)C(=O)N[C@@H](C)C(=O)N2CCC[C@H]2C(=O)N[C@@H](CCCNC(=N)N)C(=O)N[C@@H](CCCNC(=N)N)C(=O)N[C@@H](C)C(=O)N[C@@H](CCCNC(=N)N)C(=O)O)NC(=O)[C@H](CCCNC(=N)N)NC(=O)[C@H](Cc2c[nH]c3ccccc23)NC(=O)[C@H](Cc2c[nH]c3ccccc23)NC(=O)[C@@H]2CCCN2C(=O)[C@H](Cc2ccccc2)NC(=O)[C@H](CCSC)NC(=O)[C@H](CCCNC(=N)N)NC1=O (H-GDRYTCSPIRMFPWWRCDLGDPEGGGKAPRRAR-OH; disulfide 6-17), the Activity was “Active”.
